In patent US10851082B2, “Substituted aromatic n-heterocyclic compounds as inhibitors of mitogen-activated protein kinase interacting kinase 1 (MNK1) and 2 (MNK2)” (Northwestern University, priority 2015, dated 2020) one finds IC50 and EC50 data, which are given here for 16 compounds.

Where two headings read alike, the source gives them in different places.

A word on the IC50: it is the point on the concentration scale where inhibition reaches its midpoint. As a reminder, the EC50 is the midpoint of the concentration-response curve.

For assay [1], the target named is T1, Mnk1 (Homo sapiens (Human), UniProt Q9BUB5). The assay can be described thus: Mnk1 kinase inhibition, ADP-Glo ADP monitoring assay. Type of assay: biochemical. As to conditions: read-out: Mnk1 IC50. In general terms: ADP-Glo turns the ADP formed in a reaction into a luminescent signal.
Target sequence in this assay (Q9BUB5 whole entry): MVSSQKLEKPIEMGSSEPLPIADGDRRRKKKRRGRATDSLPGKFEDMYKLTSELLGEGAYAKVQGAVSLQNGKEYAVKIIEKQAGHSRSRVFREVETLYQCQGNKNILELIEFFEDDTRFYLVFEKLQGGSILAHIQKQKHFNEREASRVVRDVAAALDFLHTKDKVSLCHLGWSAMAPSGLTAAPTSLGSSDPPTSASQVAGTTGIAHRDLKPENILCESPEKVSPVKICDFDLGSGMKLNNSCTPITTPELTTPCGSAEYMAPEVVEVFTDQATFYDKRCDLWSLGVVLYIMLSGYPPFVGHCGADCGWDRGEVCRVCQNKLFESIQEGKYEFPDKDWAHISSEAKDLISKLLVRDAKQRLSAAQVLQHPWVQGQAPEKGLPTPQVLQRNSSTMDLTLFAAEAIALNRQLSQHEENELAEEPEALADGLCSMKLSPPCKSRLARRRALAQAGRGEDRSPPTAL
Method: (§1) The synthesized compounds then were tested for inhibition of the kinase activity (IC50) of Mnk1 and/or Mnk2 using the ADP monitoring assay for kinases described in Zegzouti, H.; Zdanovskaia, M.; Hsiao, K.; Goueli, S. A., ADP-Glo: A Bioluminescent and homogeneous ADP monitoring assay for kinases.
The next assay concerns the target Mnk2 (Homo sapiens (Human), UniProt Q9HBH9). The assay can be described thus: Mnk2 kinase inhibition, ADP-Glo ADP monitoring assay. Type of assay: biochemical. The note with it: ADP-Glo kinase assay; read-out: Mnk2 IC50.
The target in assay [2] is T1, Mnk1. In words: Cellular inhibition of Mnk1, flow cytometry of phospho-eIF-4E (Ser209), U937 cells. Type of assay: cell-based. As to conditions: phospho-eIF-4E Ser209, flow cytometry, read-out: U937 pEIF4E IC50. (In general: Flow cytometry measures light scatter and fluorescence of single cells or particles in a stream.)
Target sequence in this assay (Q9BUB5 whole entry, looked up): as the sequence (Q9BUB5 whole entry) above
Method: (§2) To evaluate inhibition of Mnk1 in cells, we utilized a flow cytometry-based assay based on activation of eIF-4E, the downstream target of Mnk1. The assay utilizes flow cytometry to quantitatively measure the amount of eIF-4E that is phosphorylated at residue Ser209 in cell lysate from U937 or MV4-11 cell lines. Cells grown in the presence of serum were treated with vehicle or test compounds across a range of concentrations. Levels of phospho-eIF-4E were measured and IC50 values were determined by logistic regression to quantify the potency of each compound.
Assay [3] has as its target T1, Mnk1. The assay can be described thus: Cellular inhibition of Mnk1, flow cytometry of phospho-eIF-4E (Ser209), MV4-11 cells. Type of assay: cell-based. The note with it: phospho-eIF-4E Ser209, flow cytometry, read-out: MV4-11 pEIF4E IC50.
Target sequence in this assay (Q9BUB5 whole entry, looked up): as the sequence (Q9BUB5 whole entry) above
Method: as §2
For another assay, the system named is U937 cells. In words: Cell viability assay (CellTiter-Glo), U937. Type of assay: cell-based. As to conditions: Homo sapiens. Background: In ATP-based viability assays light output follows the ATP content of the culture.
The test system of another assay is MV4-11 cells. The assay can be described thus: Cell viability assay (CellTiter-Glo), MV4-11. Type of assay: cell-based. As to conditions: Homo sapiens.
For assay [4], the target named is Mnk1. The assay can be described thus: Cellular inhibition of Mnk1, flow cytometry of phospho-eIF-4E (Ser209), U937 cells. Type of assay: cell-based. As to conditions: read-out: U937 pEIF4E IC50, phospho-eIF-4E Ser209, flow cytometry.
Method: as §2
Assay [5] deals with Mnk1. In words: Cellular inhibition of Mnk1, flow cytometry of phospho-eIF-4E (Ser209), MV4-11 cells. Type of assay: cell-based. As to conditions: read-out: MV4-11 pEIF4E IC50, phospho-eIF-4E Ser209, flow cytometry.
Method: as §2
Setting [6] is: U-937, read-out: U937 viability EC50.
Setting [7] is: MV4-11, read-out: MV4-11 viability EC50.
[8] abbreviates: U-937, U937 cells, ATP levels with CellTiter-Glo, read-out: U937 viability EC50.
Where [9] appears, read: MV4-11 cells, ATP levels with CellTiter-Glo, read-out: MV4-11 viability EC50.

Chain of Mnk2 (Q9HBH9 whole entry): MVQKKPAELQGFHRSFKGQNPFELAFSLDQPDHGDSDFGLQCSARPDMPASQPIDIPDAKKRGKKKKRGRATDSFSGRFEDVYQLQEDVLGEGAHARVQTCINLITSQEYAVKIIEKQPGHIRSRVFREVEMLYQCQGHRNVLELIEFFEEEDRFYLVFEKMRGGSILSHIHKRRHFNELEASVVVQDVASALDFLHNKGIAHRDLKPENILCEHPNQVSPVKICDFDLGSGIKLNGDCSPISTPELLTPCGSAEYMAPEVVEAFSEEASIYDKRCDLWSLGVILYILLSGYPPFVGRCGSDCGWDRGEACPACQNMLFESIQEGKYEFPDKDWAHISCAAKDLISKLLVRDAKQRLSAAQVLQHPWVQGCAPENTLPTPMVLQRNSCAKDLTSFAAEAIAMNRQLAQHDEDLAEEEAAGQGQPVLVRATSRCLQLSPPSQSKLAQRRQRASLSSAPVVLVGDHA
Method for Mnk2: as §1

Regarding `O[C@@H]1CC[C@H](Nc2nccc(-n3cnc4ccccc43)n2)C1` [NUCC-0176144], the 50% inhibitory concentration (IC50) stood at 150 nM at Mnk1 [1], 28 nM at Mnk2, 78 nM on Mnk1 [2] and 78 nM on Mnk1 [3]. The EC50 in the assay on U937 cells (setting [6]) was 5700 nM; with MV4-11 cells (setting [7]), 170 nM.
In the case of `O[C@H]1CC[C@H](Nc2nccc(-n3cnc4ccccc43)n2)C1` [NUCC-0176163], the IC50 turned out to be 200 nM at Mnk1 [1], 41 nM at Mnk2, 75 nM at Mnk1 [2] and 74 nM on Mnk1 [3]. For the same compound, the 50% effective concentration (EC50) with U937 cells (setting [6]) was 8100 nM; in the assay on MV4-11 cells (setting [7]), 220 nM.
Take `c1ccc2c(c1)ncn2-c1ccnc(Nc2ccncc2)n1` [NUCC-0125585]: the figures for the IC50 on Mnk1 [1], on Mnk1 [4] and on Mnk1 [5] were 140 nM, 51 nM and 40 nM, respectively. Moreover, the EC50 is 10000 nM with U937 cells (setting [8]) and 310 nM in the assay with MV4-11 cells (setting [9]).
`O[C@H]1CC[C@@H](Nc2nccc(-n3cnc4ccccc43)n2)C1` [NUCC-0176164]: the 50% inhibitory concentration (IC50) worked out at 100 nM on Mnk1 [1], 26 nM at Mnk2, 62 nM at Mnk1 [2] and 36 nM at Mnk1 [3]. For the same compound, the values for the EC50 with U937 cells (setting [6]) and in the assay on MV4-11 cells (setting [7]) were greater than 10000 nM and 180 nM, respectively.
With `c1ccc2c(c1)ncn2-c1ccnc(NC2CCOC2)n1` (stereo not drawn) [NUCC-0125583], at Mnk2, the IC50 was found to be 9.5 nM. Further, the half-maximal effective concentration (EC50) is greater than 10000 nM in the assay on U937 cells (setting [8]) and 620 nM in the assay on MV4-11 cells (setting [9]).
On to `CCn1cncc1CNc1nccc(-c2cnn(-c3cccc(OC)c3)c2)n1` [NUCC-0054136], for which the IC50 worked out at 10000 nM on Mnk1 [1], 140 nM at Mnk1 [4] and 100 nM on Mnk1 [5]. Also, the concentration for a half-maximal effect (EC50) with U937 cells (setting [8]) was found to be 10000 nM; with MV4-11 cells (setting [9]) it was 4500 nM.
On to `N#Cc1cnc(NCCc2ccncc2)nc1-n1cnc2ccccc21` [NUCC-0176343], for which the EC50 in the assay with U937 cells (setting [8]) is 2600 nM; in the assay with MV4-11 cells (setting [9]), 410 nM.
Regarding `CN(C)CCNc1nccc(-c2cnn(C)c2)n1` [NUCC-0060898], the IC50 at Mnk1 [1] was 5000 nM; at Mnk1 [4], 42 nM; on Mnk1 [5], 35 nM. Moreover, the 50% effective concentration (EC50) in the assay on U937 cells (setting [8]) turned out to be 13000 nM; in the assay on MV4-11 cells (setting [9]) it was 190 nM.
In the case of `c1ccc2c(c1)ncn2-c1ccnc(N[C@H]2CCOC2)n1` [NUCC-0176148], the 50% inhibitory concentration (IC50) at Mnk2 is 46 nM. For the same compound, the EC50 is greater than 10000 nM in the assay on U937 cells (setting [8]) and 440 nM in the assay with MV4-11 cells (setting [9]).
As for `Clc1cnc(NCCc2cnc[nH]2)nc1-n1cnc2ccccc21` [NUCC-0175695], the IC50 on Mnk1 [1] was 530 nM; at Mnk2, 72 nM; at Mnk1 [4] it was 630 nM; at Mnk1 [5] it was 370 nM. The EC50 with U937 cells (setting [8]) was greater than 10000 nM; with MV4-11 cells (setting [9]), 1000 nM.
`c1cncc(CCNc2ccnc(-n3cnc4ccccc43)n2)c1` [NUCC-0176341]: the half-inhibitory concentration (IC50) on Mnk1 [1] was determined as 210 nM; on Mnk2 it was 26 nM; at Mnk1 [2] it was 42 nM; on Mnk1 [3] it was 35 nM. Besides, the concentration giving a half-maximal response (EC50) with U937 cells (setting [6]) was 13000 nM; with MV4-11 cells (setting [7]) it was 190 nM.
For the compound `c1ccc2c(c1)ccn2-c1ccnc(NCCc2ccncc2)n1` [NUCC-0060954], the results for the EC50 with U937 cells (setting [8]) and in the assay with MV4-11 cells (setting [9]) were 2600 nM and 410 nM, respectively.
Regarding `c1ccc2c(c1)ncn2-c1ccnc(NC2CCNC2)n1` (stereo not drawn) [NUCC-0125592], the 50% inhibitory concentration (IC50) at Mnk1 [1] stood at 150 nM; on Mnk2, 40 nM; on Mnk1 [4] it was 1100 nM; on Mnk1 [5], 69 nM. Moreover, the EC50 is greater than 10000 nM in the assay with U937 cells (setting [8]) and 80 nM with MV4-11 cells (setting [9]).
On to `Fc1cnc(NCCc2ccncc2)nc1-n1cnc2ccccc21` [NUCC-0176281], for which the half-maximal inhibitory concentration (IC50) amounted to 330 nM on Mnk1 [1], 49 nM at Mnk2, 81 nM at Mnk1 [4] and 66 nM at Mnk1 [5]. Further, the half-maximal effective concentration (EC50) amounted to 3400 nM in the assay with U937 cells (setting [8]) and 240 nM in the assay on MV4-11 cells (setting [9]).
Regarding `Clc1cccc(-n2cc(-c3ccnc(NCCc4c[nH]cn4)n3)cn2)c1` [NUCC-0054135], the IC50 on Mnk1 [1] amounted to 6000 nM; at Mnk1 [4] it was 81 nM; at Mnk1 [5], 66 nM. For the same compound, the EC50 in the assay on U937 cells (setting [8]) is 3400 nM; in the assay on MV4-11 cells (setting [9]) it was 240 nM.
With `FC(F)(F)c1cnc(NCCc2ccncc2)nc1-n1cnc2ccccc21` [NUCC-0176282, 4-(1H-benzo[d]imidazol-1-yl)-N-(2-(pyridin-4-yl)ethyl)-5-(trifluoromethyl)pyrimidin-2-amine], the IC50 was 93 nM at Mnk1 [1], 28 nM on Mnk2, 140 nM at Mnk1 [4] and 100 nM on Mnk1 [5]. Besides, the figures for the half-maximal effective concentration (EC50) with U937 cells (setting [8]) and in the assay on MV4-11 cells (setting [9]) were 10000 nM and 4500 nM, respectively.
